Measurements from patent publication US4115541A (priority 1975, dated 1978).
Like-named read-outs stand apart in the source and are kept apart here.

Assays:
[1] = rabbits, 2 Hrs.
[2] = physical; cited from earlier work
[3] = Distribution of 99mTc-Sn-AEDP and 85Sr in rabbits, carrier effect of AEDP (Example 4); type: in vivo, rabbit; conditions: 2 Hrs.
Method: Adult New Zealand albino rabbits having an average weight of 3.8 kg were utilized. Strontium-85 was employed as a standard for comparison. […] Each dosage is contained in a volume of 1 ml.
The animals were sacrificed serially from 1 to 24 hours after injection and the activities in major organs were determined by counting multiple samples from each organ in a scintillation well counter (the technetium-99m counts were corrected for the Compton contributions from the strontium-85 activity in the technetium-99m energy window). Multiple samples were counted from the tibia, femur, spine and pelvic bones; the total activity in the skeleton was estimated by assuming the whole skeleton consisted of equal proportions by weight of tibia, spine, femur and pelvis and that the skeletal mass was 10% of the body weight. The red marrow was sampled from the femur and the total marrow was assumed to be 2.2% of the total body weight. Similarly, blood volume was assumed to be 7% and the skeletal muscle 43% of the body weight. The whole liver and both kidneys were weighed and multiple samples from each were counted to measure the total activity in each organ.
In another series of experiments carried out as described in Example 2, the distribution of technetium 99m from its 99m-technetium-tin-methylene diphosphonate complex was determined in albino rabbits, again in comparison with strontium-85.
The distribution of technetium 99m from its 99m technetium-tin-1-amino-ethane-1,1-diphosphonate complex was determined as in Example 3 and compared with the distribution of strontium-85.

[4] = rabbits i.v., ~1 mg/kg EHDP
[5] = rabbits, 2 Hrs.; remark: listed apart in the source

[85Sr+2].[Cl-].[Cl-] [^85 Sr, 85Sr chloride, reference compound]
Ave Bone, % Dose/1% body weight ([1]; MDP 0.01 mg/kg): 11.85 % Dose/1% body weight | Blood, % dose/1% body weight ([1]; MDP 0.01 mg/kg): 0.47 % Dose/1% body weight | Femur, % dose/1% body weight ([1]; MDP 0.01 mg/kg): 13.93 % Dose/1% body weight | Kidneys, % Dose in Whole Organ ([1]; MDP 0.01 mg/kg): 0.34 % Dose | Kidneys, % dose/1% body weight ([1]; MDP 0.01 mg/kg): 0.54 % Dose/1% body weight | Liver, % Dose in Whole Organ ([1]; MDP 0.01 mg/kg): 0.65 % Dose | Liver, % dose/1% body weight ([1]; MDP 0.01 mg/kg): 0.16 % Dose/1% body weight | Marrow, % Dose in Whole Organ ([1]; MDP 0.01 mg/kg): 0.53 % Dose | Marrow, % dose/1% body weight ([1]; MDP 0.01 mg/kg): 0.24 % Dose/1% body weight | Muscle, % dose/1% body weight ([1]; MDP 0.01 mg/kg): 0.13 % Dose/1% body weight | Pelvis, % dose/1% body weight ([1]; MDP 0.01 mg/kg): 13.55 % Dose/1% body weight | Spine, % dose/1% body weight ([1]; MDP 0.01 mg/kg): 12.78 % Dose/1% body weight | Tibia, % dose/1% body weight ([1]; MDP 0.01 mg/kg): 7.14 % Dose/1% body weight | Ave Bone, % Dose/1% body weight ([1]; MDP 0.05 mg/kg): 7.29 % Dose/1% body weight | Blood, % dose/1% body weight ([1]; MDP 0.05 mg/kg): 0.52 % Dose/1% body weight | Femur, % dose/1% body weight ([1]; MDP 0.05 mg/kg): 9.10 % Dose/1% body weight | Kidneys, % Dose in Whole Organ ([1]; MDP 0.05 mg/kg): 0.46 % Dose | Kidneys, % dose/1% body weight ([1]; MDP 0.05 mg/kg): 0.9 % Dose/1% body weight | Liver, % Dose in Whole Organ ([1]; MDP 0.05 mg/kg): 0.71 % Dose | Liver, % dose/1% body weight ([1]; MDP 0.05 mg/kg): 0.22 % Dose/1% body weight | Marrow, % Dose in Whole Organ ([1]; MDP 0.05 mg/kg): 0.53 % Dose | Marrow, % dose/1% body weight ([1]; MDP 0.05 mg/kg): 0.24 % Dose/1% body weight | Muscle, % dose/1% body weight ([1]; MDP 0.05 mg/kg): 0.14 % Dose/1% body weight | Pelvis, % dose/1% body weight ([1]; MDP 0.05 mg/kg): 8.33 % Dose/1% body weight | Spine, % dose/1% body weight ([1]; MDP 0.05 mg/kg): 6.75 % Dose/1% body weight | Tibia, % dose/1% body weight ([1]; MDP 0.05 mg/kg): 4.94 % Dose/1% body weight | Ave Bone, % Dose/1% body weight ([1]; MDP 0.1 mg/kg): 9.17 % Dose/1% body weight | Blood, % dose/1% body weight ([1]; MDP 0.1 mg/kg): 0.56 % Dose/1% body weight | Femur, % dose/1% body weight ([1]; MDP 0.1 mg/kg): 10.0 % Dose/1% body weight | Kidneys, % Dose in Whole Organ ([1]; MDP 0.1 mg/kg): 0.66 % Dose | Kidneys, % dose/1% body weight ([1]; MDP 0.1 mg/kg): 1.00 % Dose/1% body weight | Liver, % dose/1% body weight ([1]; MDP 0.1 mg/kg): 0.30 % Dose/1% body weight | Marrow, % Dose in Whole Organ ([1]; MDP 0.1 mg/kg): 0.57 % Dose | Marrow, % dose/1% body weight ([1]; MDP 0.1 mg/kg): 0.26 % Dose/1% body weight | Muscle, % dose/1% body weight ([1]; MDP 0.1 mg/kg): 0.22 % Dose/1% body weight | One femur, % dose in whole organ ([1]; MDP 0.1 mg/kg): 2.80 % Dose | Pelvis, % dose/1% body weight ([1]; MDP 0.1 mg/kg): 12.2 % Dose/1% body weight | Spine, % dose/1% body weight ([1]; MDP 0.1 mg/kg): 8.45 % Dose/1% body weight | Tibia, % dose/1% body weight ([1]; MDP 0.1 mg/kg): 6.05 % Dose/1% body weight | Ave Bone, % Dose/1% body weight ([1]; MDP 0.5 mg/kg): 8.77 % Dose/1% body weight | Blood, % dose/1% body weight ([1]; MDP 0.5 mg/kg): 0.45 % Dose/1% body weight | Femur, % dose/1% body weight ([1]; MDP 0.5 mg/kg): 11.32 % Dose/1% body weight | Kidneys, % Dose in Whole Organ ([1]; MDP 0.5 mg/kg): 0.45 % Dose | Kidneys, % dose/1% body weight ([1]; MDP 0.5 mg/kg): 0.69 % Dose/1% body weight | Liver, % Dose in Whole Organ ([1]; MDP 0.5 mg/kg): 0.69 % Dose | Liver, % dose/1% body weight ([1]; MDP 0.5 mg/kg): 0.23 % Dose/1% body weight | Marrow, % Dose in Whole Organ ([1]; MDP 0.5 mg/kg): 0.67 % Dose | Marrow, % dose/1% body weight ([1]; MDP 0.5 mg/kg): 0.30 % Dose/1% body weight | Muscle, % dose/1% body weight ([1]; MDP 0.5 mg/kg): 0.13 % Dose/1% body weight | Pelvis, % dose/1% body weight ([1]; MDP 0.5 mg/kg): 8.68 % Dose/1% body weight | Spine, % dose/1% body weight ([1]; MDP 0.5 mg/kg): 8.92 % Dose/1% body weight | Tibia, % dose/1% body weight ([1]; MDP 0.5 mg/kg): 6.16 % Dose/1% body weight | half-life (radionuclide) [2]: 65 days | Blood, % Dose in Whole Organ ([3]; AEDP 0.05 mg/kg): 2.50 % Dose | Liver, % Dose in Whole Organ ([3]; AEDP 0.5 mg/kg): 0.720 % Dose | Blood, % dose/1% body weight ([4]; 1 Hr.): 1.70 % dose/1% body weight | Bone(Avg), % dose in whole organ ([4]; 1 Hr.): 56.0 % dose | Bone(Avg), % dose/1% body weight ([4]; 1 Hr.): 5.60 % dose/1% body weight | Femur, % dose/1% body weight ([4]; 1 Hr.): 4.90 % dose/1% body weight | Kidneys, % Dose in Whole Organ ([4]; 1 Hr.): 0.80 % dose | Kidneys, % dose/1% body weight ([4]; 1 Hr.): 1.75 % dose/1% body weight | Liver, % dose/1% body weight ([4]; 1 Hr.): 0.59 % dose/1% body weight | Marrow, % Dose in Whole Organ ([4]; 1 Hr.): 0.91 % dose | Marrow, % dose/1% body weight ([4]; 1 Hr.): 0.41 % dose/1% body weight | Muscle, % dose/1% body weight ([4]; 1 Hr.): 0.31 % dose/1% body weight | Pelvis, % dose/1% body weight ([4]; 1 Hr.): 7.07 % dose/1% body weight | Spine, % dose/1% body weight ([4]; 1 Hr.): 7.03 % dose/1% body weight | Tibia, % dose/1% body weight ([4]; 1 Hr.): 3.62 % dose/1% body weight | Blood, % dose/1% body weight ([4]; 2 Hrs): 1.01 % dose/1% body weight | Bone(Avg), % dose/1% body weight ([4]; 2 Hrs): 6.44 % dose/1% body weight | Femur, % dose/1% body weight ([4]; 2 Hrs): 5.74 % dose/1% body weight | Kidneys, % Dose in Whole Organ ([4]; 2 Hrs): 0.64 % dose | Kidneys, % dose/1% body weight ([4]; 2 Hrs): 1.40 % dose/1% body weight | Liver, % dose/1% body weight ([4]; 2 Hrs): 0.43 % dose/1% body weight | Marrow, % Dose in Whole Organ ([4]; 2 Hrs): 0.76 % dose | Marrow, % dose/1% body weight ([4]; 2 Hrs): 0.34 % dose/1% body weight | Muscle, % Dose in Whole Organ ([4]; 2 Hrs): 8.8 % dose | Muscle, % dose/1% body weight ([4]; 2 Hrs): 0.21 % dose/1% body weight | Pelvis, % dose/1% body weight ([4]; 2 Hrs): 7.70 % dose/1% body weight | Spine, % dose/1% body weight ([4]; 2 Hrs): 7.59 % dose/1% body weight | Tibia, % dose/1% body weight ([4]; 2 Hrs): 4.73 % dose/1% body weight | Urine, % Dose ([4]; 2 Hrs): 18.0 % dose | Blood, % dose/1% body weight ([4]; 4 Hrs): 0.55 % dose/1% body weight | Bone(Avg), % dose/1% body weight ([4]; 4 Hrs): 6.81 % dose/1% body weight | Femur, % dose/1% body weight ([4]; 4 Hrs): 6.17 % dose/1% body weight | Kidneys, % Dose in Whole Organ ([4]; 4 Hrs): 0.34 % dose | Kidneys, % dose/1% body weight ([4]; 4 Hrs): 0.71 % dose/1% body weight | Liver, % dose/1% body weight ([4]; 4 Hrs): 0.26 % dose/1% body weight | Marrow, % Dose in Whole Organ ([4]; 4 Hrs): 0.50 % dose | Marrow, % dose/1% body weight ([4]; 4 Hrs): 0.23 % dose/1% body weight | Muscle, % dose/1% body weight ([4]; 4 Hrs): 0.15 % dose/1% body weight | Pelvis, % dose/1% body weight ([4]; 4 Hrs): 8.02 % dose/1% body weight | Spine, % dose/1% body weight ([4]; 4 Hrs): 7.82 % dose/1% body weight | Tibia, % dose/1% body weight ([4]; 4 Hrs): 5.13 % dose/1% body weight | Blood, % Dose in Whole Organ ([4]; 24 Hrs): 0.29 % dose | Blood, % dose/1% body weight ([4]; 24 Hrs): 0.04 % dose/1% body weight | Bone(Avg), % dose/1% body weight ([4]; 24 Hrs): 5.21 % dose/1% body weight | Femur, % dose/1% body weight ([4]; 24 Hrs): 4.83 % dose/1% body weight | Kidneys, % Dose in Whole Organ ([4]; 24 Hrs): 0.03 % dose | Kidneys, % dose/1% body weight ([4]; 24 Hrs): 0.06 % dose/1% body weight | Liver, % dose/1% body weight ([4]; 24 Hrs): 0.02 % dose/1% body weight | Marrow, % Dose in Whole Organ ([4]; 24 Hrs): 0.10 % dose | Marrow, % dose/1% body weight ([4]; 24 Hrs): 0.05 % dose/1% body weight | Muscle, % Dose in Whole Organ ([4]; 24 Hrs): 1.00 % dose | Pelvis, % dose/1% body weight ([4]; 24 Hrs): 5.26 % dose/1% body weight | Spine, % dose/1% body weight ([4]; 24 Hrs): 6.47 % dose/1% body weight | Tibia, % dose/1% body weight ([4]; 24 Hrs): 4.27 % dose/1% body weight | Kidneys, % Dose in Whole Organ ([5]; EHDP 0.01 mg/kg): 0.43 % Dose | Liver, % Dose in Whole Organ ([5]; EHDP 0.01 mg/kg): 0.74 % Dose | Marrow, % Dose in Whole Organ ([5]; EHDP 0.01 mg/kg): 0.42 % Dose | One Tibia, % Dose in Whole Organ ([5]; EHDP 0.01 mg/kg): 2.60 % Dose | Kidneys, % Dose in Whole Organ ([5]; EHDP 0.05 mg/kg): 0.46 % Dose | Liver, % Dose in Whole Organ ([5]; EHDP 0.05 mg/kg): 0.77 % Dose | Marrow, % Dose in Whole Organ ([5]; EHDP 0.05 mg/kg): 0.61 % Dose | Blood, % Dose in Whole Organ ([5]; EHDP 0.1 mg/kg): 3.10 % Dose | Kidneys, % Dose in Whole Organ ([5]; EHDP 0.1 mg/kg): 0.30 % Dose | Liver, % Dose in Whole Organ ([5]; EHDP 0.1 mg/kg): 0.64 % Dose | Marrow, % Dose in Whole Organ ([5]; EHDP 0.1 mg/kg): 0.43 % Dose | Muscle, % Dose in Whole Organ ([5]; EHDP 0.1 mg/kg): 5.0 % Dose | Kidneys, % Dose in Whole Organ ([5]; EHDP 0.5 mg/kg): 0.48 % Dose | Liver, % Dose in Whole Organ ([5]; EHDP 0.5 mg/kg): 0.76 % Dose | Marrow, % Dose in Whole Organ ([5]; EHDP 0.5 mg/kg): 0.34 % Dose | Urine, % Dose ([5]; EHDP 0.5 mg/kg): 19.67 % Dose
